Test results reported in patent publication EP0623616A1, “Heterocyclic compounds and process for the preparation thereof” (EGIS GYOGYSZERGYAR RT., priority 1993, dated 1994).
Read-outs that look alike come from different tables or passages of the source.

Legend:
[1] = system: Male Wistar rats; settings: value taken from literature (J. Med. Chem. 29(3), 363(1986); Drugs of Future 10(II), 731(1985)); cited from earlier work
[2] = system: mice; settings: value taken from literature (Drugs of Future 10(II), 731 (1985)); cited from earlier work
[3] = system: mice; experiment: Effect on the spontaneous motor activity (method of Borsy et al., 10-channel Dews system); format: in vivo; settings: for Mobility inhibition ID50: treated orally, 1 hour after treatment, interruptions of infrared beam within 30 minutes
Method: The test was carried out according to the method of Borsy et al. Groups consisting of 3 mice each were treated orally with different doses of the compounds to be tested 1 hour after treatment with the test compound or the vehicle the animals were placed into a 10-channel Dews system equipment. In this equipment the number of interruptions of infrared beam within 30 minutes was counted. From these date 50% inhibiting doses (IC₅₀) were determined with the aid of a line of regression [Borsy, J., Csanyi, E., Lazar, I.: Arch. Int. Pharmacodyn. 124, a (1960)].

[4] = system: Male Wistar rats; experiment: Vogel test (drinking conflict test); format: in vivo; settings: for MED: minimum effective dose, increase of tolerated shocks, rats, intraperitoneally half an hour before testing
Method: Male Wistar rats of 160 to 180 g body weight were kept free of food and drinking water for 24 and 48 hours, respectively. Test and carrier substances were administered intraperitoneally half an hour before testing. Animals within the experimental chamber were provided with drinking water through an inserted tube. After the animals' each twenty lapping for water the device emitted a 2 mA intensity electric shock through the drinking tube. During 5 minutes the shocks tolerated by the animals in order to quench their thirst were counted. The effect of treatment was expressed as the % increase of the tolerated shocks. The minimum effective dose (MED) was determined for each test compound [Vogel, J.R., Beer, B., Clody, D.E.:Psychopharmacologia (Berl.)21, 1(1971)].

[5] = system: Male rats belonging to the Spraghe Dawley strain; experiment: Elevated plus maze test on rat; format: in vivo; settings: for MED: p.o., minimum effective dose causing a significant increase of time spent on the open arms, rats, pretreatment 60 minutes
Method: The test was carried out with the aid of a wooden plus-shaped maze elevated to a height of 50 cm. Two arms (100 cm long and 15 cm wide) - opposite to one another - were enclosed up to a height of 40 cm along their longer sides and at the end. The other two arms were without walls (open arms). The central 15x15 cm part was open. Male rats belonging to the Spraghe Dawley strain and weighing 220 to 260 g were used as test animals. After pretreatment lasting 60 minutes the animals were placed into the central part of the maze. During the 5 minutes observation period the following parameters were recorded: • time spent on the open arms • time spent on the closed arms • number of open arm entries • number of closed arm entries.
The drug effect was expressed as percent increase of the time spent on the open arms and number of open arm entries. The minimum effective dose which caused a significant increase of the time spent on the open arms was calculated for every substance [Pelow, S., Chopin, P., File, S.E., Briley, M.:J. Neurosci. Methods 14, 149-167 (1985)].

[6] = system: Male Wistar rats; experiment: Conditioned avoidance response inhibition (shuttle box); format: in vivo; settings: for Conditioned relfex ID50: rats, 50% inhibiting dose, dosing one hour before the measurement, oral
Method: The antipsychotic (neuroleptic) effect was measured by the inhibition of the learned conditioned avoidance reflex. The male Wistar rats used for the study were of 120 to 150 g body weight at the beginning of learning. A shuttle box was used as experimental device, it consisted of two parts, 24x24,5x23 cm each, separated by a wall with a 6x9 cm gate. In response to a suitable warning stimulus, in order to avoid the punishing (unconditioned) stimulus, animals within the box passed through the gate from one part to the other. The warning, i.e. conditioned stimulus (CS), a white light (1 Hz) blinking for 15 seconds, was applied at the actual place of the animal. The unconditioned stimulus (US), in form of 0,6 mA intensity electric shock, was randomly applied to the paw during the last 5 seconds of the conditioned stimulus. The animal's movement during the CS and US from one part of the box to the other was defined as avoidance and escape response, respectively. Both responses ceased the actual stimulus and stopped the trial. The time elapsed until the next trial (intertrial interval, ITI) was 15 seconds. While one experiment was carried out daily, an experiment consisted of 80 trials. Learning efficiency was expresses as percentage of the successful to the total avoidances. Effect of the neuroleptic drugs was examined in animals with stabilized conditioned reflexes and with at least 75% learning efficiency. Dosing was carried out once a week, one hour before the measurement in the shuttle box. To calculate the neuroleptic effect (50% inhibiting dose, ID₅₀), the results obtained after the treatment were compared to those obtained on the previous day (controls).

[7] = Vogel test, ratio of MED values

## O=C1CC2(CCCC2)CC(=O)N1CCCCN1CCN(c2nsc3ccccc23)CC1 [Thiaspiron, thiaspiron]
[1]
  Conditioned relfex ID50: 10,5 mg/kg
[2]
  Mobility inhibition ID50: 8,4 mg/kg

## CNC1=Nc2ccc(Cl)cc2C(c2ccccc2)=[N+]([O-])C1 [Chlorodiazepoxide]
[3]
  Mobility inhibition ID50: 56,0 mg/kg
[4]
  MED: 10.0 mg/kg

## CCCC(C)(COC(N)=O)COC(N)=O [Meprobamate]
[5]
  MED: >10,0 mg/kg
[4]
  MED: 25.0 mg/kg

## O=C(CCCN1CCC(O)(c2ccc(Cl)cc2)CC1)c1ccc(F)cc1 [Haloperidol]
[6]
  Conditioned relfex ID50: 0,6 mg/kg

## Cc1nc2sccn2c(=O)c1CCN1CCC(=C(c2ccc(F)cc2)c2ccc(F)cc2)CC1 [Ritanserin]
[5]
  MED: 5,0 mg/kg

## 8-{4-[4-(1,2-Benzisothiazol-3-yl)-1-piperazinyl]-but-2-ynyl}-8-azaspiro[4,5]decane-7,9-dione [Example 1]
[3]; result in words
  influence on the spontaneous motor activity: does not influence the spontaneous motor activity
[3]
  Mobility inhibition ID50: ineffective(>100) mg/kg
[5]; elevated plus maze, ratio of MED values
  effectiveness relative to Ritanserin: twice as effective
[5]
  MED: 2,5 mg/kg
[4]; [7]
  effectiveness relative to chlorodiazepoxide: twice as effective
  times as effective as Meprobamate: 5
[4]
  MED: 5.0 mg/kg
[6]
  Conditioned relfex ID50: 30,0 mg/kg
[6]; up to an oral dose of 30 mg/kg, result in words
  influence on the conditioned avoidance response: does not influence the conditioned avoidance response

## CN(C)CCCN1c2ccccc2Sc2ccc(Cl)cc21 [Chloropromazine]
[6]
  Conditioned relfex ID50: 13,2 mg/kg

## CN1C(=O)CN=C(c2ccccc2)c2cc(Cl)ccc21 [Diazepam]
[3]
  Mobility inhibition ID50: 23,0 mg/kg
